The results in this text go back to US20110020518A1, “TASTE MODIFYING PRODUCT” (priority 2008, published 2011).

The test has as its system kokumi/umami taste. Kind of test: Evaluation of alkylpyridines: taste panel of 8 trained panelists, samples in 0.3% aqueous NaCl. The test is classed as in vivo. As to conditions: scale 0 (no effect) to 10 (extremely strong kokumi/umami effect). As to the method: Alkylpyridines shown in the following table were prepared by firstly being diluted into propylene glycol solvent in order to provide a 10% solution of the alkylpyridine. Each solution was then diluted using a 0.3% aqueous solution of NaCl, heated if necessary to achieve better dissolution, to a concentration of between 10 ppm and 30 ppm of the alkylpyridine. The samples were then stored at ambient temperature.
A panel consisting of 8 trained panelists evaluated the samples for taste properties on a scale of 0 to 10 where 0 denoted no kokumi/umami effect and 10 denoted extremely strong kokumi/umami effect.

Compound `CCc1ccccn1` [2-Ethylpyridine, reference compound] yielded a Kokumi/Umami taste intensity (10 ppm in 0.3% aqueous NaCl) of 0. On the same count and under the same terms, under `CCCCCCCCCCCCc1ccccn1` [Compound of ex. 5, 2-dodecylpyridine] stands 0; under `CCCCCCCCCc1ccccn1` [Compound of ex. 3, 2-nonylpyridine], 1.

Compound `CCCCCCCCc1ccccn1` [Compound of ex. 2, 2-octylpyridine] gave a Kokumi/Umami taste intensity (10 ppm in 0.3% aqueous NaCl) of 2. Same read-out and setting: under `CCCCCCCc1ccccn1` [Compound of ex. 1, 2-heptylpyridine] stands 7. In turn, `c1ccncc1` [Pyridine, reference compound] had a Kokumi/Umami taste intensity (30 ppm in 0.3% aqueous NaCl) of 0. `CCCc1ccccn1` [2-Propylpyridine, reference compound] yielded a Kokumi/Umami taste intensity (10 ppm in 0.3% aqueous NaCl) of 0. Turning to `Cc1ccccn1` [2-picoline, reference compound], the Kokumi/Umami taste intensity (20 ppm in 0.3% aqueous NaCl) is recorded as 0. On to `CCCCCCc1ccccn1` [2-Hexylpyridine], for which, for the setting “10 ppm in 0.3% aqueous NaCl”, the Kokumi/Umami taste intensity was determined as 7. For `CCCCCc1cc(C)ccn1` [Compound of ex. 6, 4-methyl-2-pentylpyridine], the Kokumi/Umami taste intensity (10 ppm in 0.3% aqueous NaCl) is given as 0.

`CCCCCCCCCCCc1ccccn1` [Compound of ex. 4, 2-undecylpyridine] showed a Kokumi/Umami taste intensity (10 ppm in 0.3% aqueous NaCl) of 0.
